Counter-ions that a name gives are not always drawn.
Legend:
[1] = target: T1, neuronal nicotinic acetylcholine receptors (Rattus norvegicus, UniProt P09483+P12390); assay: Binding of [3H]-cytisine to neuronal nicotinic acetylcholine receptors, crude synaptic membranes from whole rat brain
T1 construct: crude synaptic membrane preparations from whole rat brain; from tissue; host or cells: whole rat brain, crude synaptic membranes
Method: The In Vitro protocols for determination of nicotinic acetylcholine channel receptor binding potencies of ligands were determined as follows.
Binding of [^3H]-cytisine ([^3 H]-CYT) to neuronal nicotinic acetylcholine receptors was accomplished using crude synaptic membrane preparations from whole rat brain (Pabreza et al., Molecular Pharmacol., 1990, 39:9). Washed membranes were stored at —80° C. prior to use. Frozen aliquots were slowly thawed and resuspended in 20 volumes of buffer (containing: 120 mM NaCl, 5 mM KCl, 2 mM MgCl2, 2 mM CaCl2 and 50 mM Tris-Cl, pH 7.4 @4° C.). After centrifuging at 20,000×g for 15 minutes, the pellets were resuspended in 30 volumes of buffer.
The test compounds were dissolved in water to make 10 mM stock solutions. Each solution was then diluted (1:100) with buffer (as above) and further taken through seven serial log dilutions of produce test solution from 10^−5 to 10^−11 M.
Homogenate (containing 125-150 μg protein) was added to triplicate tubes containing the range of concentrations of test compound described above and [^3H]-CYT (1.25 nM) in a final volume of 500 μL. Samples were incubated for 60 minutes at 4° C., then rapidly filtered through Whatman GF/B filters presoaked in 0.5% polyethyleneimine using 3×4 mL of ice-cold buffer. The filter are counted in 4 mL of Ecolume® (ICN). Nonspecific binding was determined in the presence of 10 μM (−)-nicotine and values were expressed as a percentage of total binding. IC50 values were determined with the RS-1 (BBN) nonlinear least squares curve-fitting program and IC50 values were converted to Ki values using the Cheng and Prusoff correction ([…].

mouse hot plate paradigm = assay: Mouse hot plate paradigm (analgesia); type: in vivo; conditions: ip, 0.5 h, mice, intraperitoneal, dosed 30 minutes prior to testing, hot plate 55° C., increase in tenth jump latency relative to control, read-out: minimally effective dose (MED)
Method: An in vivo protocol was utilized to determine the effectiveness of nicotinic acetylcholine receptor ligands as analgesic agents in the mouse hot plate paradigm.
Separate groups of mice, (n=8/group) were utilized for each dose group. All drugs were administered by the intraperitoneal route of administration. Test drugs were dissolved in water to make a 6.2 mM stock solution. Animals were dosed with this solution (10 mL/kg body weight) for a 62 micromol/kg dose. Lower doses were administered similarly, following serial dilution of the stock solution in half-log increments. Animals were dosed 30 minutes prior to testing in the hot plate. The hot-plate utilized was an automated analgesia monitor (Model #AHP16AN, Omnitech Electronics, Inc. of Columbus, Ohio). The temperature of the hot plate was maintained at 55° C. and a cut-off time of 180 seconds was utilized. Latency until the tenth jump was recoreded as the dependent measure. An increase in the tenth jump latency relative to the control was considered an effect.

T1 sequence (P09483 31-630): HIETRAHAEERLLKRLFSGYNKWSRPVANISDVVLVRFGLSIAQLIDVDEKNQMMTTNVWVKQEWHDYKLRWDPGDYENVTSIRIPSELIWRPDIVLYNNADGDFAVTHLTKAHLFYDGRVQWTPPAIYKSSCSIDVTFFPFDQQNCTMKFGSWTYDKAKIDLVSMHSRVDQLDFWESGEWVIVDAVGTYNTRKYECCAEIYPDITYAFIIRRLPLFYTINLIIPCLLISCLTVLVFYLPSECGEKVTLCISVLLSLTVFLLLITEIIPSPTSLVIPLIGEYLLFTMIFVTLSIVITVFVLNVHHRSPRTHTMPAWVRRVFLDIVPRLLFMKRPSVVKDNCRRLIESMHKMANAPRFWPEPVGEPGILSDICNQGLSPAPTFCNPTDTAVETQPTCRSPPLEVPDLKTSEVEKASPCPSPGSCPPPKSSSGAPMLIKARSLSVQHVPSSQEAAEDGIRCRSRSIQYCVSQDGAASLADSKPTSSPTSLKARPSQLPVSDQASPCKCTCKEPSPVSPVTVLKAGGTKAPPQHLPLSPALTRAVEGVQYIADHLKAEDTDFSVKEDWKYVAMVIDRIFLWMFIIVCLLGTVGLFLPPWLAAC
T1 sequence (P12390 25-500): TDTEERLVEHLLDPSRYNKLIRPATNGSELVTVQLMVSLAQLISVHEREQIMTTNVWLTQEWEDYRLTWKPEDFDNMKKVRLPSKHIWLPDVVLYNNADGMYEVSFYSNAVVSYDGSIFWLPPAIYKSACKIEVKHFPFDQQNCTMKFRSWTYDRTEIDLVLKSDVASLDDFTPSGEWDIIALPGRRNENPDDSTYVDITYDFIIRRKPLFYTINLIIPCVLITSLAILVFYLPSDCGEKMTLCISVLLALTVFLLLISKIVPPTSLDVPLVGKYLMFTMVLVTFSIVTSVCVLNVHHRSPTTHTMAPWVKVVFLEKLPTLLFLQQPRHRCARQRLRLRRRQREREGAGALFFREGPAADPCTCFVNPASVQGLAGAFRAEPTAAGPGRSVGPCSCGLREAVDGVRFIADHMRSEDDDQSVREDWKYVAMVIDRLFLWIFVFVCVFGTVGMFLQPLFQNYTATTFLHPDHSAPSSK

| SMILES | melting point [°C] | Ki [1] [nM] | minimal effective dose (mouse hot plate paradigm) [µmol/kg] |
| --- | --- | --- | --- |
| CN(C)[C@H]1CCN(c2ccc(Cl)nc2)C1 (as salt: benzenesulfonate) [Example 3, N-[(3S)-1-(6-chloro-3-pyridinyl)pyrrolidinyl]-N,N-dimethylamine 4-methylbenzenesulfonate] | 190 to 191.5 | – | – |
| N[C@@H]1CCN(c2ccc(Cl)nc2)C1 (as salt: benzenesulfonate) [Example 4, (3R)-1-(6-chloro-3-pyridinyl)pyrrolidinylamine 4-methylbenzenesulfonate] | 224.5 to 225.5 | – | – |
| N[C@H]1CCCN(c2cccnc2)C1 (as salt: benzenesulfonate) [Example 41, (3S)-1-(3-pyridinyl)piperidinylamine bis(4-methylbenzenesulfonate)] | 64 to 66 | – | – |
| N[C@H]1CCCN(c2ccc(Cl)nc2)C1 (as salt: benzenesulfonate) [Example 45, (3S)-1-(6-chloro-3-pyridinyl)piperidinylamine bis(4-methylbenzenesulfonate)] | 182 to 184 | – | – |
| N[C@H]1CCN(c2cncc([N+](=O)[O-])c2)C1 (as salt: fumarate) [Example 29, (3S)-1-(5-nitro-3-pyridinyl)pyrrolidinylamine fumarate] | 213 to 214 | – | – |
| CN[C@H]1CCN(c2cncc([N+](=O)[O-])c2)C1 (as salt: fumarate) [Example 30, N-methyl-N-[(3S)-1-(5-nitro-3-pyridinyl)pyrrolidinyl]amine fumarate] | 183 to 185 | – | – |
| N[C@@H]1CCN(c2cncc([N+](=O)[O-])c2)C1 (as salt: fumarate) [Example 31, (3R)-1-(5-nitro-3-pyridinyl)pyrrolidinylamine fumarate] | 212 to 213 | – | – |
| CN[C@@H]1CCN(c2cncc([N+](=O)[O-])c2)C1 (as salt: fumarate) [Example 32, N-methyl-N-[(3R)-1-(5-nitro-3-pyridinyl)pyrrolidinyl]amine fumarate] | 184 to 185 | – | – |
| CN[C@H]1CCN(c2ccc(Cl)nc2)C1 (as salt: hydrochloride) [Example 1, N-[(3S)-1-(6-chloro-3-pyridinyl)pyrrolidinyl]-N-methylamine hydrochloride] | > 250 | – | – |
| N[C@@H]1CCN(c2cncc([N+](=O)[O-])c2)C1 [Example 31, (3R)-1-(5-nitro-3-pyridinyl)pyrrolidinylamine fumarate] | – | 3.5 | 6.2 |
| NC1CCCN(c2ccc(Cl)nc2)C1 (stereo not shown) [Example 38, 1-(6-chloro-3-pyridinyl)-3-piperidinylamine 4-methylbenzenesulfonate] | – | 0.51 | 6.2 |
| N[C@H]1CCCN(c2cccnc2)C1 [Example 41, (3S)-1-(3-pyridinyl)piperidinylamine bis(4-methylbenzenesulfonate)] | – | 0.89 | 19 |
| CN[C@H]1CCCN(c2cccnc2)C1 [Example 42, N-methyl-N-[(3S)-1-(3-pyridinyl)piperidin-3-yl]amine bis(4-methylbenzenesulfonate)] | – | 83 | 62 |
| N[C@@H]1CCCN(c2cccnc2)C1 [Example 43, (3R)-1-(3-pyridinyl)piperidinylamine bis(4-methylbenzenesulfonate)] | – | 1.1 | 0.62 |
| N[C@H]1CCCN(c2ccc(Cl)nc2)C1 [Example 45, (3S)-1-(6-chloro-3-pyridinyl)piperidinylamine bis(4-methylbenzenesulfonate)] | – | 0.35 | 0.62 |
| CN[C@H]1CCCN(c2ccc(Cl)nc2)C1 [Example 46, N-[(3S)-1-(6-chloro-3-pyridinyl)piperidin-3-yl]-N-methylamine dihydrochloride] | – | 60 | 62 |
| N[C@@H]1CCCN(c2ccc(Cl)nc2)C1 [Example 47, (3R)-1-(6-chloro-3-pyridinyl)piperidin-3-ylamine bis(4-methylbenzenesulfonate)] | – | 0.38 | 1.9 |

From US7332504B2, “Heterocyclic substituted aminoazacycles useful as central nervous system agents” (Abbott Laboratories, priority 1999, dated 2008)
